For 75 molecules, IC50 results are on record in US20230115176A1 (Ra Pharmaceuticals, Inc., priority 2019, published 2023).

Structures are written as SMILES. pIC50: −log10 of the molar value.

The experiment deals with T1, Human C5 (Homo sapiens, UniProt P01031).
T1 construct: purchased Complement Technology
T1 sequence (P01031 19-1676): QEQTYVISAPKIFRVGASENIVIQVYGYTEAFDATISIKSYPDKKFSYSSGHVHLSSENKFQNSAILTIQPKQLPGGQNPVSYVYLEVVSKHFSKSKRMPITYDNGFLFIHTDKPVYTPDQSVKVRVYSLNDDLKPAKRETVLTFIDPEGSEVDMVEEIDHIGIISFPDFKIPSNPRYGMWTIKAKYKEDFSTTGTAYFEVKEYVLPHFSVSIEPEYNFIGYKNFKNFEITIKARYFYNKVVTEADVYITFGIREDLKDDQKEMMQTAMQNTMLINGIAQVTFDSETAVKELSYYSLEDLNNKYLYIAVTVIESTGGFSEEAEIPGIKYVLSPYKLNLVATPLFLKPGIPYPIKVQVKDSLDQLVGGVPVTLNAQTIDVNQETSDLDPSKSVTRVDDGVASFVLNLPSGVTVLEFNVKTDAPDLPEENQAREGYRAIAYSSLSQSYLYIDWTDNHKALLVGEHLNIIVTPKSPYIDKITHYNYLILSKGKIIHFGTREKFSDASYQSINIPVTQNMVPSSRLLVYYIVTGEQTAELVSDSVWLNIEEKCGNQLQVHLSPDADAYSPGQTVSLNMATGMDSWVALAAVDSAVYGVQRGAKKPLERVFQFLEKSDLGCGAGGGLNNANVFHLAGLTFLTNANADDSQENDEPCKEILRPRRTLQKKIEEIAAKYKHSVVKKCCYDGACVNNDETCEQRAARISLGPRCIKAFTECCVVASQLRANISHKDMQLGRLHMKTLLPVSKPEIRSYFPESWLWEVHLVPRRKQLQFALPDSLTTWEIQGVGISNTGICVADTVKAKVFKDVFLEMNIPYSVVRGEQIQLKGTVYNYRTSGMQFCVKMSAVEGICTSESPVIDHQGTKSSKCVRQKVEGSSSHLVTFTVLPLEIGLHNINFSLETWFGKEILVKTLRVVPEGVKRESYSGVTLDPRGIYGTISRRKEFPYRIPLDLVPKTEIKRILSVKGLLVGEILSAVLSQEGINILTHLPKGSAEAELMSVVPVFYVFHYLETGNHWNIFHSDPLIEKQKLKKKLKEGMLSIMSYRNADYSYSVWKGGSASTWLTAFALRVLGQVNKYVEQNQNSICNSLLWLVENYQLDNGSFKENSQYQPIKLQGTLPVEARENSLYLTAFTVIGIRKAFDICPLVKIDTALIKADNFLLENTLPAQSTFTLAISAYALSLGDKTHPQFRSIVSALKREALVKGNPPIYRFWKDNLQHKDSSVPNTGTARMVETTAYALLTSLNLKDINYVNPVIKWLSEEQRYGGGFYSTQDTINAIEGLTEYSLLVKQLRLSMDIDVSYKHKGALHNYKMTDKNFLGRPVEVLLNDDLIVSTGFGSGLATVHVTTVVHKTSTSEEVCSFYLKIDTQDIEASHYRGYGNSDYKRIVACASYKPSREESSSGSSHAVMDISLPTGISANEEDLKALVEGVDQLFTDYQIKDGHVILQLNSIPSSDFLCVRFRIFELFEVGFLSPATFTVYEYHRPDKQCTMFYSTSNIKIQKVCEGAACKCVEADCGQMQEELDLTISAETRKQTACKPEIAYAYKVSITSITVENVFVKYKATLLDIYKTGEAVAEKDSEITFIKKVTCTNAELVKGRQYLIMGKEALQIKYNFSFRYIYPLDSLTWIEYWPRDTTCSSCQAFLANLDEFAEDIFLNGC
As to the kind of experiment: Red blood cell (RBC) hemolysis assay, luminescent (Example 13, Table 22). Note: 1.5% C5-depleted human serum. Type of experiment: cell-based. The note with it: sheep EA cells, […] C5-depleted human serum, 0.5 nM human C5, 1 hour 37° C., luminescence. From the text: Compound CU0136 is a racemic mixture of Compound CU0186 and CU0187. Numbers in parenthesis following compound numbers indicate alternate enantiomers (as distinguished by retention time during chromatographical separation).
The term pIC50 denotes the IC50 on a negative log10 scale, so that one unit is a factor of ten. `CCCCCOc1cc(N2CCCN(Cc3ccc(CC(=O)N4CCCC4)cc3OC)C2=O)ccc1OC` [CU0006] gave a pIC50 of 7.71.

The molecule `CCCCCOc1cc(N2CCN(Cc3ccccc3Cl)C2=O)ccc1OC` [CU0009] had a negative logarithm of the IC50 (pIC50) of 6.69.

On to `CCCCCOc1cc(N2CCCN(Cc3ccccc3C3CC3)C2=O)ccc1OC` [CU0015], for which the pIC50 is 6.28.

As for `CCCCCOc1cc(N2CCN(C[C@@H](O)c3ccccc3)C2=O)ccc1OC` [CU0016], the pIC50 was 5.58.

Take `CCCCCOc1cc(N2CCCN(Cc3cccc4c3ccn4Cc3cccnc3)C2=O)ccc1OC` [CU0023]: the pIC50 is 7.68.

On to `CCCCCOc1cc(N2CCCN(Cc3cccc4c3ccn4CC(=O)N(C)C)C2=O)ccc1C1CC1` [CU0026], for which the pIC50 was 7.20.

`CCCCCOc1cc(N2CCN(Cc3ccnc4c3ccn4CC(=O)N(C)C)C2=O)ccc1C1CC1` [CU0034] showed a pIC50 of 5.91.

`COc1ccc(N2CCCCN(Cc3ccnc4c3ccn4CC(=O)N(C)C)C2=O)cc1OCCCC(C)C` [CU0038] had a pIC50 of 6.57.

`CCCCCOc1cc(N2CCCN(C(C)c3ccnc4c3ccn4C3CCN(C)C3=O)C2=O)ccc1OC` (stereo not drawn) [CU0040(1)] gave a negative-log IC50 (pIC50) of 7.18.

Regarding `CCCCCOc1cc(N2CCCN(C(C)c3ccnc4c3ccn4C3CCN(C)C3=O)C2=O)ccc1OC` (stereo not drawn) [CU0040(2)], the pIC50 was 7.12.

On to `CCCCCOc1cc(N2CCN(Cc3ccnc4c3ccn4CC(=O)N3CCOC(COC)C3)C2=O)ccc1OC` (stereo not drawn) [CU0047], for which the pIC50 was 5.50.

The molecule `CCCCCOc1cc(N2CCN(Cc3ccnc4c3ccn4CC(=O)N3CCCOCC3)C2=O)ccc1OC` [CU0052] gave a pIC50 of 7.21.

In the case of `CCCCCOc1cc(N2CCCN(Cc3ccnc4c3ccn4CC(=O)N3CCCOCC3)C2=O)ccc1OC` [CU0053], the pIC50 was 7.63. Compared with the last molecule, the pIC50 is 0.42 log units higher.

Take `CCCCCOc1cc(N2CCCN(Cc3ccnc4c3ccn4CC(=O)N3CCCOCC3)C2=O)ccc1C1CC1` [CU0054]: the pIC50 is 6.93.

Regarding `CCCCCOc1cc(N2CCN(Cc3ccnc4c3ccn4CC(=O)N3CCNC(=O)C3)C2=O)ccc1OC` [CU0058], the pIC50 is 5.60.

In turn, `CCCCCOc1cc(N2CCCN(Cc3cccc4nc(C)oc34)C2=O)ccc1OC` [CU0066] had a pIC50 of 6.61.

`CCCCCOc1cc(N2CCCN(Cc3cccc4nc(CC)oc34)C2=O)ccc1OC` [CU0067] showed a negative logarithm of the IC50 (pIC50) of 6.02.

As to `CCCCCOc1cc(N2CCCN(Cc3ccc(CC(=O)O)cc3OC)C2=O)ccc1OC` [CU0102], the pIC50 was 7.27.

In turn, `CCCCCOc1cc(N2CCCN(Cc3ccc(CC(=O)N(C)C)cc3OC)C2=O)ccc1C1CC1` [CU0113] had a pIC50 of 7.26.

In turn, `CCCCCOc1cc(N2CCCN(Cc3ccc(CC(=O)N4CCCOCC4)cc3OC)C2=O)ccc1C1CC1` [CU0114] had a pIC50 of 7.00.

`CCCCCOc1cc(N2CCCN(Cc3cccc(-c4cnn(C5COC5)c4)c3F)C2=O)ccc1OC` [CU0119]: the pIC50 was 7.28.

On to `CCCCCOc1cc(N2CCCN(Cc3cccc(-c4cnn(C(C)OCC)c4)c3F)C2=O)ccc1OC` (stereo not drawn) [CU0125], for which the pIC50 is 7.13. This pIC50 and that of the molecule before are within 0.2 log units of each other.

Take `CCCCCOc1cc(N2CCCN(Cc3cccc(-c4cnn(CC(C)C)c4)c3F)C2=O)ccc1OC` [CU0126]: the pIC50 was 6.82.

As for `CCCCCOc1cc(N2CCCN(Cc3cccc(C4=CCNCC4)c3F)C2=O)ccc1OC` [CU0128], the pIC50 was 7.22. This pIC50 lies 0.40 log units higher than the previous one.

Take `CCCCCOc1cc(N2CCCN(Cc3cccc(N4CCN(C5COC5)CC4)c3F)C2=O)ccc1OC` [CU0130]: the pIC50 is 6.83. This pIC50 is 0.39 log units lower than that of the molecule before.

`CCCCCOc1cc(N2CCCN(Cc3cccc(N4CCC(C(C)(C)O)C4)c3F)C2=O)ccc1OC` (stereo not drawn) [CU0131] gave a pIC50 of 6.82.

On to `CCCCCOc1cc(N2CCCN(Cc3cccc(N4CCOCC4)c3F)C2=O)ccc1OC` [CU0132], for which the pIC50 is 6.52.

As for `CCCCCOc1cc(N2CCCN(Cc3cccc(N4CCN(C)CC4)c3F)C2=O)ccc1OC` [CU0133], the pIC50 is 7.09.

With `CCCCCOc1cc(N2CCCN(Cc3ccc(CC(=O)NC4CCN(C(C)=O)C4)cc3Cl)C2=O)ccc1OC` (stereo not drawn) [CU0134], the pIC50 is 7.79.

Molecule `CCCCCOc1cc(N2CCCN(Cc3ccc(CC(=O)NC4CCN(C(C)C)CC4)cc3Cl)C2=O)ccc1OC` [CU0135] had a pIC50 of 7.84.

Consider `CCCCCOc1cc(N2CCCN(Cc3ccc(CNC(=O)OC)cc3OC)C2=O)ccc1OC` [CU0137], for which the pIC50 was 8.00.

For the molecule `CCCCCOc1cc(N2CCCN(Cc3ccc(CCOC(=O)N4CCCC4)cc3OC)C2=O)ccc1OC` [CU0138], the pIC50 was 7.26.

In turn, `CCCCCOc1cc(N2CCCN(Cc3ccc(CCn4ccnc4)cc3OC)C2=O)ccc1OC` [CU0139] gave a negative-log IC50 (pIC50) of 7.04.

Take `COc1cc(CC(=O)NC2CCN(C(C)=O)C2)ccc1CN1CCCN(c2ccc(OC)c(OCCCC(C)(F)F)c2)C1=O` (stereo not drawn) [CU0142]: the pIC50 was 7.74. Against the preceding molecule, the pIC50 is 0.70 log units higher.

Molecule `COc1ccccc1CN1CCCN(c2ccc(OC)c(OCCCC(C)(F)F)c2)C1=O` [CU0143] gave a pIC50 of 7.63. The pIC50 values of the last two molecules are within 0.2 log units of each other.

Turning to `CCCCCOc1cc(N2CCCN(Cc3ccc(F)c(C4=CCNCC4)c3)C2=O)ccc1OC` [CU0144], the pIC50 was 6.96.

`COc1cc(CC(=O)N2CCCOCC2)ccc1CN1CCCN(c2ccc(OC)c(OCCCC(C)(F)F)c2)C1=O` [CU0146] had a negative logarithm of the IC50 (pIC50) of 7.90. This pIC50 is 0.94 log units higher than that of the molecule before.

Consider `CCCCCOc1cc(N2CCCN(Cc3ccc(CCn4ccnn4)cc3OC)C2=O)ccc1OC` [CU0147], for which the pIC50 was 7.33. This pIC50 is 0.57 log units lower than that of the molecule before.

`CCCCCOc1cc(N2CCCN(Cc3ccc(CCn4cnnn4)cc3OC)C2=O)ccc1OC` [CU0148] had a negative logarithm of the IC50 (pIC50) of 7.44.

On to `CCCCCOc1cc(N2CCCN(Cc3ccc(CN(C)C(=O)OC)cc3OC)C2=O)ccc1OC` [CU0149], for which the negative logarithm of the IC50 (pIC50) was 7.62. The pIC50 values of the last two molecules are within 0.2 log units of each other.

On to `CCCCCOc1cc(N2CCCN(Cc3ccc(F)c(-c4cnn(C5CCN(C)CC5)c4)c3)C2=O)ccc1OC` [CU0150], for which the pIC50 is 7.06. Against the preceding molecule, the pIC50 is 0.56 log units lower.

On to `CCCCCOc1cc(N2CCCN(Cc3cc(C4=CCNCC4)ccc3OC)C2=O)ccc1OC` [CU0151], for which the pIC50 is 6.15. Against the preceding molecule, the pIC50 is 0.91 log units lower.

In the case of `CCCCCOc1cc(N2CCCN(Cc3cc(-c4cnn(C5CCN(C)CC5)c4)ccc3OC)C2=O)ccc1OC` [CU0152], the pIC50 was 6.84.

As to `CCCCCOc1cc(N2CCCN(Cc3ccc(Br)cc3OC)C2=O)ccc1OC` [CU0153], the pIC50 is 6.63.

For `CCCCCOc1cc(N2CCCN(Cc3cccc(C4=CCNCC4)c3OC)C2=O)ccc1OC` [CU0155], the pIC50 was 7.36.

Molecule `CCCCCOc1cc(N2CCCN(Cc3cc(OC)cc(C4=CCNCC4)c3)C2=O)ccc1OC` [CU0156] gave a pIC50 of 6.62.

`CCCCCOc1cc(N2CCCN(Cc3cccc(-c4cnn(C5CCN(C)CC5)c4)c3OC)C2=O)ccc1OC` [CU0157] gave a pIC50 of 6.83.

For the molecule `CCCCCOc1cc(N2CCCN(Cc3cc(OC)cc(-c4cnn(C5CCN(C)CC5)c4)c3)C2=O)ccc1OC` [CU0158], the pIC50 was 7.56.

In turn, `CCCCCOc1cc(N2CCCN(Cc3ccc(CCO)cc3OC)C2=O)ccc1OC` [CU0159] gave a negative-log IC50 (pIC50) of 7.01.

Molecule `COc1cc(Cl)ccc1CN1CCCN(c2ccc(OC)c(OCc3ccccc3)c2)C1=O` [CU0162] gave a negative logarithm of the IC50 (pIC50) of 5.54.

In turn, `COc1cc(F)ccc1CN1CCCN(c2ccc(OC)c(OCc3ccccc3)c2)C1=O` [CU0163] had a pIC50 of 6.00. Compared with the last molecule, the pIC50 is 0.46 log units higher.

`COc1ccc(F)cc1CN1CCCN(c2ccc(OC)c(OCc3ccccc3)c2)C1=O` [CU0164] had a pIC50 of 6.23.

`CCCCCOc1cc(N2CCCN(Cc3ccc(F)cc3OC)C2=O)ccc1OC` [CU0165] gave a pIC50 of 7.44.

Consider `CCCCCOc1cc(N2CCCN(Cc3ccc(Cl)cc3OC)C2=O)ccc1OC` [CU0166], for which the pIC50 is 7.04. Against the preceding molecule, the pIC50 is 0.40 log units lower.

Regarding `C=CCCCOc1cc(N2CCCN(Cc3cc(F)ccc3OC)C2=O)ccc1OC` [CU0167], the pIC50 is 7.40.

As to `COc1ccc(F)cc1CN1CCCN(c2ccc(OC)c(OCC3CCCC3)c2)C1=O` [CU0168], the pIC50 is 6.63.

`CCC#CCOc1cc(N2CCCN(Cc3cc(F)ccc3OC)C2=O)ccc1OC` [CU0169] showed a pIC50 of 7.08.

With `CCC(F)(F)CCOc1cc(N2CCCN(Cc3ccc(CC(=O)N(C)C)cc3OC)C2=O)ccc1OC` [CU0171], the pIC50 is 7.35. Compared with the last molecule, the pIC50 is 0.27 log units higher.

Take `CCCCCOc1cc(N2CCCN(Cc3ccc(CN4CCOCC4)cc3OC)C2=O)ccc1OC` [CU0172]: the pIC50 is 7.43. This pIC50 and that of the molecule before are within 0.2 log units of each other.

The molecule `CCC(F)(F)CCOc1cc(N2CCCN(Cc3ccc(CC(=O)N4CCCOCC4)cc3OC)C2=O)ccc1OC` [CU0174] showed a pIC50 of 7.44.

On to `CCC(F)(F)CCOc1cc(N2CCCN(Cc3ccccc3OC)C2=O)ccc1OC` [CU0176], for which the pIC50 was 6.95.

Take `C#CCCCOc1cc(N2CCCN(Cc3cc(F)ccc3OC)C2=O)ccc1OC` [CU0179]: the negative-log IC50 (pIC50) was 6.81.

Take `COc1ccc(F)cc1CN1CCCN(c2ccc(OC)c(OCc3ccc(C)cc3)c2)C1=O` [CU0180]: the pIC50 is 6.39.

Regarding `COc1ccc(F)cc1CN1CCCN(c2ccc(OC)c(OCc3cccc(C)c3)c2)C1=O` [CU0181], the negative logarithm of the IC50 (pIC50) is 6.92.

Take `COc1ccc(F)cc1CN1CCCN(c2ccc(OC)c(OCc3ccccc3C)c2)C1=O` [CU0182]: the pIC50 is 6.03.

The molecule `COc1ccc(F)cc1CN1CCCN(c2ccc(OC)c(OCCCc3ccccc3)c2)C1=O` [CU0183] showed a pIC50 of 6.62. Against the preceding molecule, the pIC50 is 0.59 log units higher.

Turning to `COc1ccc(F)cc1CN1CCCN(c2ccc(OC)c(OCC[C@@H]3C[C@@H]4CC[C@H]3C4)c2)C1=O` [CU0184], the pIC50 is 7.49. Compared with the last molecule, the pIC50 is 0.87 log units higher.

The molecule `COc1ccc(F)cc1CN1CCCN(c2ccc(OC)c(OCCC3CCCC3)c2)C1=O` [CU0185] gave a pIC50 of 6.74.

In the case of `CCCCCOc1cc(N2CCCN(Cc3ccc(CCOCCN4CCCC4)cc3OC)C2=O)ccc1OC` [CU0189], the pIC50 was 6.38.

In turn, `CCCCCOc1cc(N2CCCN(Cc3ccc(CNC(=O)C4CN(C)C4)cc3OC)C2=O)ccc1OC` [CU0191] had a pIC50 of 7.06.

`CCCCCOc1cc(N2CCCN(Cc3ccc(CNC(=O)OCC)cc3OC)C2=O)ccc1OC` [CU0192] had a pIC50 of 7.72. This pIC50 is 0.66 log units higher than that of the molecule before.

In turn, `COc1ccc(F)cc1CN1CCCN(c2ccc(OC)c(OCCc3ccccc3)c2)C1=O` [CU0193] gave a pIC50 of 7.35.

In the case of `CC/C=C\COc1cc(N2CCCN(Cc3cc(F)ccc3OC)C2=O)ccc1OC` [CU0194], the pIC50 was 7.02.

The molecule `COc1ccc(F)cc1CN1CCCN(c2ccc(OC)c(OCCCC(F)(F)C(F)(F)F)c2)C1=O` [CU0195] gave a pIC50 of 7.31.

In the case of `CCC(F)(F)CCOc1cc(N2CCCN(Cc3ccc(CC(=O)N4CCO[C@H](COC)C4)cc3OC)C2=O)ccc1OC` [CU0197], the pIC50 was 7.50.
